Test results published in doi:10.1101/2025.01.28.635346v1 (bioRxiv, 2025).
Read-outs that look alike come from different tables or passages of the source. Bridge positions count the residues as written; N and C are the ends. Side chains are listed from the residue outwards. Peptide text beside a SMILES is read from it. * marks the point of attachment. Butanoyl(4-(4-I-phenyl)) = O=C(CCCc1ccc(I)cc1)*; PEG2 = NCCOCCOCCC(=O)O

How the values were obtained:
integrin αvβ6 = integrin αvβ6 (Homo sapiens, UniProt P06756+P18564); assay: ELISA competition assay, integrin αvβ6 binding to LAP
integrin αvβ8 = integrin αvβ8 (Homo sapiens, UniProt P06756+P26012); assay: ELISA competition assay, integrin αvβ8 binding to LAP
[1] = Pharmacokinetics in female Balb/c mice; type: in vivo, mouse
[2] = αvβ6 IC50, ELISA competition vs LAP, mean, n ≥ 3
[3] = Table S3E, IP 10 mg/kg, mouse, animal 1F001
[4] = Table S3E, IP 10 mg/kg, mouse, animal 1F002
[5] = Table S3E, IP 10 mg/kg, mouse, animal 1F003
[6] = Table S3E, IP 10 mg/kg, mouse, animal 1F005
[7] = female, Balb/c, mouse, plasma, ip, 10 mg/kg

`CC[C@H](C)[C@@H]1NC(=O)[C@H](CO)NC(=O)CC[C@@H](C(=O)N[C@@H](CCCNC(=N)N)C(=O)NCC(=O)N[C@@H](CC(=O)O)C(=O)N[C@@H](CC(C)C)C(=O)N[C@@H](CCC(N)=O)C(=O)N[C@H](C(=O)N[C@@H](Cc2ccc(O)cc2)C(=O)N[C@@H](Cc2c[nH]c3ccccc23)C(=O)N2CCC[C@H]2C(=O)O)[C@@H](C)O)NC(=O)[C@H](CCCNC(=N)N)NC(=O)[C@H](CC(C)C)NC(=O)CNC(=O)[C@H](CO)NC(=O)[C@H](CC(=O)O)NC(=O)CNC1=O` [lassotide 18] (SIGDSGLRERGDLQTYWP-OH; lactam N-9; C-terminus assumed) gave an IC50 (integrin αvβ6; [2]) of 3.2 µM and an IC50 (integrin αvβ8) of 2.47 µM.
With `CC[C@H](C)[C@H](NC(=O)[C@H](CC(C)C)NC(=O)[C@H](CC(=O)O)NC(=O)CNC(=O)[C@H](CCCNC(=N)N)NC(=O)[C@H](C)NC(=O)[C@H](Cc1ccccc1)NC(=O)[C@H](Cc1ccc(O)cc1)NC(=O)[C@@H]1CCC(=O)NCC(=O)NCC(=O)N[C@@H](C)C(=O)NCC(=O)N[C@@H](Cc2c[nH]cn2)C(=O)N[C@@H](C(C)C)C(=O)N2CCC[C@H]2C(=O)N1)C(=O)N[C@@H](CO)C(=O)N[C@@H](Cc1ccccc1)C(=O)N[C@@H](Cc1ccc(O)cc1)C(=O)NCC(=O)O` [lassotide 19] (GGAGHVPEYFARGDLISFYG-OH; lactam N-8; C-terminus assumed) the IC50 (integrin αvβ6; [2]) was 0.066 µM and the IC50 (integrin αvβ8) was 0.024 µM.
For `CC[C@H](C)[C@H](NC(=O)[C@H](CC(C)C)NC(=O)[C@H](CC(=O)O)NC(=O)CNC(=O)[C@H](CCCNC(=N)N)NC(=O)[C@@H](NC(=O)[C@H](Cc1ccccc1)NC(=O)[C@H](Cc1ccc(O)cc1)NC(=O)[C@@H]1CCC(=O)NCC(=O)NCC(=O)N[C@@H](CCCCN)C(=O)NCC(=O)N[C@@H](Cc2c[nH]cn2)C(=O)N[C@@H](C(C)C)C(=O)N2CCC[C@H]2C(=O)N1)C(C)C)C(=O)N[C@@H](CO)C(=O)N[C@@H](Cc1ccccc1)C(=O)N[C@@H](Cc1ccc(O)cc1)C(=O)NCC(=O)O` [lassotide 28] (GGKGHVPEYFVRGDLISFYG-OH; lactam N-8; C-terminus assumed), the IC50 (integrin αvβ6; [2]) was 0.044 µM and the IC50 (integrin αvβ8) was 0.048 µM.
`CC[C@H](C)[C@H](NC(=O)[C@H](CC(C)C)NC(=O)[C@H](CC(=O)O)NC(=O)CNC(=O)[C@H](CCCNC(=N)N)NC(=O)[C@@H](NC(=O)[C@H](Cc1ccccc1)NC(=O)[C@H](Cc1ccc(O)cc1)NC(=O)[C@@H]1CCC(=O)NCC(=O)NCC(=O)N[C@@H](CCC(=O)O)C(=O)NCC(=O)N[C@@H](Cc2c[nH]cn2)C(=O)N[C@@H](C(C)C)C(=O)N2CCC[C@H]2C(=O)N1)C(C)C)C(=O)N[C@@H](CO)C(=O)N[C@@H](Cc1ccccc1)C(=O)N[C@@H](Cc1ccc(O)cc1)C(=O)NCC(=O)O` [lassotide 29] (GGEGHVPEYFVRGDLISFYG-OH; lactam N-8; C-terminus assumed) showed an IC50 (integrin αvβ6; [2]) of 0.104 µM and an IC50 (integrin αvβ8) of 0.047 µM.
In the case of `CC[C@H](C)[C@H](NC(=O)[C@H](CC(C)C)NC(=O)[C@H](CC(=O)O)NC(=O)CNC(=O)[C@H](CCCNC(=N)N)NC(=O)[C@@H](NC(=O)[C@H](Cc1ccccc1)NC(=O)[C@H](Cc1ccc(O)cc1)NC(=O)[C@@H]1CCC(=O)NCC(=O)NCC(=O)N[C@@H](Cc2c[nH]cn2)C(=O)NCC(=O)N[C@@H](Cc2c[nH]cn2)C(=O)N[C@@H](C(C)C)C(=O)N2CCC[C@H]2C(=O)N1)C(C)C)C(=O)N[C@@H](CO)C(=O)N[C@@H](Cc1ccccc1)C(=O)N[C@@H](Cc1ccc(O)cc1)C(=O)NCC(=O)O` [lassotide 31] (GGHGHVPEYFVRGDLISFYG-OH; lactam N-8; C-terminus assumed), the IC50 (integrin αvβ6; [2]) is reported as 0.021 µM and the IC50 (integrin αvβ8) is reported as 0.027 µM.
For `CC[C@H](C)[C@H](NC(=O)[C@H](CC(C)C)NC(=O)[C@H](CC(=O)O)NC(=O)CNC(=O)[C@H](CCCNC(=N)N)NC(=O)[C@@H](NC(=O)[C@H](Cc1ccccc1)NC(=O)[C@H](Cc1ccc(O)cc1)NC(=O)[C@@H]1CCC(=O)NCC(=O)NCC(=O)N[C@@H](CC(C)C)C(=O)NCC(=O)N[C@@H](Cc2c[nH]cn2)C(=O)N[C@@H](C(C)C)C(=O)N2CCC[C@H]2C(=O)N1)C(C)C)C(=O)N[C@@H](CO)C(=O)N[C@@H](Cc1ccccc1)C(=O)N[C@@H](Cc1ccc(O)cc1)C(=O)NCC(=O)O` [lassotide 32] (GGLGHVPEYFVRGDLISFYG-OH; lactam N-8; C-terminus assumed), the IC50 (integrin αvβ6; [2]) was 0.053 µM and the IC50 (integrin αvβ8) was 0.032 µM.
For `CC[C@H](C)[C@@H]1NC(=O)[C@H](CO)NC(=O)CNC(=O)[C@H](CCCNC(=N)N)NC(=O)CNC(=O)CNC(=O)CC[C@@H](C(=O)N[C@@H](Cc2ccc(O)cc2)C(=O)N[C@@H](Cc2ccccc2)C(=O)N[C@@H](CCC(N)=O)C(=O)N[C@@H](CCCNC(=N)N)C(=O)NCC(=O)N[C@@H](CC(=O)O)C(=O)N[C@@H](CC(C)C)C(=O)N[C@@H](CCC(N)=O)C(=O)N[C@@H](CO)C(=O)N[C@@H](Cc2ccccc2)C(=O)N[C@@H](Cc2ccc(O)cc2)C(=O)NCC(=O)O)NC(=O)[C@@H]2CCCN2C1=O` [lassotide 44] (GGRGSIPEYFQRGDLQSFYG-OH; lactam N-8; C-terminus assumed), the IC50 (integrin αvβ6) was 0.0014 µM.
In the case of `CC[C@H](C)[C@H](NC(=O)[C@H](CC(C)C)NC(=O)[C@H](CC(=O)O)NC(=O)CNC(=O)[C@H](CCCNC(=N)N)NC(=O)[C@@H](NC(=O)[C@H](Cc1ccccc1)NC(=O)[C@H](Cc1ccc(O)cc1)NC(=O)[C@@H]1CCC(=O)NCC(=O)NCC(=O)N[C@@H](CCCCNC(=O)CCOCCOCCNC(=O)CCCc2ccc(I)cc2)C(=O)NCC(=O)N[C@@H](Cc2c[nH]cn2)C(=O)N[C@@H](C(C)C)C(=O)N2CCC[C@H]2C(=O)N1)C(C)C)C(=O)N[C@@H](CO)C(=O)N[C@@H](Cc1ccccc1)C(=O)N[C@@H](Cc1ccc(O)cc1)C(=O)N[C@@H](CCCCNC(=O)CCOCCOCCNC(=O)CCCc1ccc(I)cc1)C(=O)O` [lassotide 52] (GGK([PEG2-Butanoyl(4-(4-I-phenyl))])GHVPEYFVRGDLISFYK([PEG2-Butanoyl(4-(4-I-phenyl))])-OH; lactam N-8), the “further increase in half-life” value ([1]; 52 vs 47, 10 mg/kg IP, mice) is reported as 4.4 fold, the “Plasma Concentration” value ([1]; IP 10 mg/kg, 1.0 h, animal 1F001) is reported as 31.6 µg/mL and the “Plasma Concentration” value ([1]; IP 10 mg/kg, 1.0 h, animal 1F002) is reported as 21 µg/mL. The “Plasma Concentration” value ([1]; IP 10 mg/kg, 1.0 h, animal 1F003) was 36.3 µg/mL, the “Plasma Concentration” value ([1]; IP 10 mg/kg, 1.0 h, animal 1F005) was 34.2 µg/mL and the “Plasma Concentration” value ([1]; IP 10 mg/kg, 2.0 h, animal 1F001) was 50.8 µg/mL. The “Plasma Concentration” value ([1]; IP 10 mg/kg, 2.0 h, animal 1F002) was 35 µg/mL, the “Plasma Concentration” value ([1]; IP 10 mg/kg, 2.0 h, animal 1F003) was 53.1 µg/mL and the “Plasma Concentration” value ([1]; IP 10 mg/kg, 2.0 h, animal 1F005) was 40 µg/mL. The “Plasma Concentration” value ([1]; IP 10 mg/kg, 4.0 h, animal 1F001) was 54.5 µg/mL, the “Plasma Concentration” value ([1]; IP 10 mg/kg, 4.0 h, animal 1F002) was 51.1 µg/mL and the “Plasma Concentration” value ([1]; IP 10 mg/kg, 4.0 h, animal 1F003) was 59.3 µg/mL. For the same compound, the “Plasma Concentration” value ([1]; IP 10 mg/kg, 4.0 h, animal 1F005) was 43.4 µg/mL, the “Plasma Concentration” value ([1]; IP 10 mg/kg, 8.0 h, animal 1F001) was 45.3 µg/mL and the “Plasma Concentration” value ([1]; IP 10 mg/kg, 8.0 h, animal 1F002) was 43.8 µg/mL. The “Plasma Concentration” value ([1]; IP 10 mg/kg, 8.0 h, animal 1F003) was 51 µg/mL, the “Plasma Concentration” value ([1]; IP 10 mg/kg, 8.0 h, animal 1F005) was 35.2 µg/mL and the “Plasma Concentration” value ([1]; IP 10 mg/kg, 12 h, animal 1F001) was 37.9 µg/mL. For the same compound, the “Plasma Concentration” value ([1]; IP 10 mg/kg, 12 h, animal 1F002) was 43.8 µg/mL, the “Plasma Concentration” value ([1]; IP 10 mg/kg, 12 h, animal 1F003) was 43.8 µg/mL and the “Plasma Concentration” value ([1]; IP 10 mg/kg, 12 h, animal 1F005) was 30.5 µg/mL. The “Plasma Concentration” value ([1]; IP 10 mg/kg, 24 h, animal 1F001) was 22.5 µg/mL, the “Plasma Concentration” value ([1]; IP 10 mg/kg, 24 h, animal 1F002) was 24.3 µg/mL and the “Plasma Concentration” value ([1]; IP 10 mg/kg, 24 h, animal 1F003) was 34.8 µg/mL. For the same compound, the “Plasma Concentration” value ([1]; IP 10 mg/kg, 24 h, animal 1F005) was 19.9 µg/mL, the “Plasma Concentration” value ([1]; IP 10 mg/kg, 36 h, animal 1F001) was 16.1 µg/mL and the “Plasma Concentration” value ([1]; IP 10 mg/kg, 36 h, animal 1F002) was 17.4 µg/mL. The “Plasma Concentration” value ([1]; IP 10 mg/kg, 36 h, animal 1F003) was 22 µg/mL, the “Plasma Concentration” value ([1]; IP 10 mg/kg, 36 h, animal 1F005) was 13.4 µg/mL and the “Plasma Concentration” value ([1]; IP 10 mg/kg, 48 h, animal 1F001) was 11.2 µg/mL. For the same compound, the “Plasma Concentration” value ([1]; IP 10 mg/kg, 48 h, animal 1F002) was 12.4 µg/mL, the “Plasma Concentration” value ([1]; IP 10 mg/kg, 48 h, animal 1F003) was 13.2 µg/mL and the “Plasma Concentration” value ([1]; IP 10 mg/kg, 48 h, animal 1F005) was 7.33 µg/mL. For the same compound, the AUClast [1, 3] was 1290 µg·h/mL, the CL/F [1, 3] was 0.104 mL/min/kg and the Cmax [1, 3] was 54.5 µg/mL. For the same compound, the Tmax [1, 3] was 4.0 h, the Vz/F [1, 3] was 0.179 L/kg and the t1/2 [1, 3] was 20 h. It also gave an AUClast [1, 4] of 1330 µg·h/mL, a CL/F [1, 4] of 0.0981 mL/min/kg and a Cmax [1, 4] of 51.1 µg/mL. It also gave a Tmax [1, 4] of 4.0 h, a Vz/F [1, 4] of 0.176 L/kg and a t1/2 [1, 4] of 21 h. For the same compound, the AUClast [1, 5] was 1610 µg·h/mL, the CL/F [1, 5] was 0.0829 mL/min/kg and the Cmax [1, 5] was 59.3 µg/mL. The Tmax [1, 5] was 4.0 h, the Vz/F [1, 5] was 0.151 L/kg and the t1/2 [1, 5] was 21 h. For the same compound, the AUClast [1, 6] was 1050 µg·h/mL, the CL/F [1, 6] was 0.134 mL/min/kg and the Cmax [1, 6] was 43.4 µg/mL. For the same compound, the Tmax [1, 6] was 4.0 h, the Vz/F [1, 6] was 0.21 L/kg and the t1/2 [1, 6] was 18 h. For the same compound, the Tmax ([1]; Table S3E: IP 10 mg/kg, female Balb/c mice, Mean N=4) was 4.00 h, the AUC(0-t) [1, 7] was 1320 µg·h/mL and the CL/F [1, 7] was 0.105 mL/min/kg. For the same compound, the Cmax [1, 7] was 52.1 µg/mL, the Tmax [1, 7] was 4 h and the Vd/F [1, 7] was 0.179 L/kg. For the same compound, the half-life [1, 7] was 20 h, the level at 1 h [1, 7] was 30.8 µg/mL and the level at 2 h [1, 7] was 44.7 µg/mL. It also gave a level at 4 h [1, 7] of 52.1 µg/mL, a level at 8 h [1, 7] of 43.8 µg/mL and a level at 12 h [1, 7] of 39 µg/mL. The level at 24 h [1, 7] was 25.4 µg/mL, the level at 36 h [1, 7] was 17.2 µg/mL and the level at 48 h [1, 7] was 11 µg/mL.
